Where no end group is shown, it is not given here.
What follows are substances tested against T1, Mannheimia haemolytica leukotoxin (Lkt) (Mannheimia haemolytica, UniProt P16535) (assay: not given). Details: not given.

Substance | fold better at blocking Lkt-induced cytotoxicity compared to the 13-mer R5 peptide [fold]
CPQLLLLAGLLAL [C5] | 8

Each substance was assayed against T1, Mannheimia haemolytica leukotoxin (Lkt) (assay: cell-based). Details: IC50 (uM) aa 4-17.

Substance | IC50 [µM]
QCPQLLLLAGLLAL [Cattle Q4C5] | 2.6 ± 0.1
RCPQLLLLAGLLAL [Cattle R4C5] | 14.5 ± 0.6
RCPQVLLLAGLLGL [Eland R4C5V8G16] | 33.3 ± 1.3
QCPQVLLLAGLLGL [Eland Q4C5V8G16] | 1.6 ± 0.1

Same assay, conditions: IC50 (uM) aa 5-17

Substance | IC50 [µM]
RPQLLLLAGLLSL [Water Buffalo R5S16] | 13.9 ± 1
CPQVLLLAGLLGL [Eland C5V8G16] | 0.5 ± 0.1
RPQLLLLAGLLAL [R5] | 12.1 ± 0.6
RPQLLFLSGLLAL [Sheep R5F10S12] | 16.1 ± 1

Same assay, conditions: IC50 (μM)

Substance | IC50 [µM]
RPQLLLLAGL [(A) 5-14] | 23.1 ± 1.3
MLRQRPQLLLLAGLLALQSVLS [R3R5] | 12.7 ± 0.6
RPQLLLLAGLLA [(A) 5-16] | 18 ± 0.8
CPQLLLLA [(B) 5-12] | 51.5 ± 5.7
RPQLLLLAGLL [(A) 5-15] | 26.4 ± 1.7
RPQLLLLAG [(A) 5-13] | 75 ± 11.3
CPQLLLLAG [(B) 5-13] | 27.8 ± 2
CPQLLLLAGLL [(B) 5-15] | 2.8 ± 0.2
RPQLLLLAGLLAL [R5] | 13.7 ± 0.6
CPQLLLLAGLLA [(B) 5-16] | 0.6 ± 0.1
CPQLLLLAGL [(B) 5-14] | 6.7 ± 0.5
CPQLLLLAGLLAL [C5] | 1.5 ± 0.1
RPQLLLL [(A) 5-11] | 64.8 ± 7.4
RPQLLLLA [(A) 5-12] | 81.8 ± 13.6
CPQLLLL [(B) 5-11] | 56.2 ± 5
MLRQCPQLLLLAGLLALQSVLS [R3C5] | 6.8 ± 0.5

Same assay, conditions: IC50, concentration of peptide needed to block 50% of Lkt-induced cytolysis of BL3 cells

Substance | IC50 [µM]
MLRQRPQLLLLAGLLALQSVLS [R3R5] | 17.9
MLHQRPQLLLLAGLLALQSVLS [H3R5] | 21.6
MLRQCPQLLLLAGLLALQSVLS [R3C5] | 5.9
